From patent US20180280364A1, “PHARMACEUTICAL COMPOSITIONS OF SODIUM PICOSULFATE, MAGNESIUM OXIDE AND CITRIC ACID” (Hetero Labs Limited, priority 2017, published 2018)

Assay: Compatibility study of sodium picosulfate with citric acid
Format: physicochemical
Details: produced a wet mass with high known impurities
Excerpt: As sodium picosulfate is having sensitivity towards an acidic nature ingredient, there is a need to formulate the composition of sodium picosulfate not in direct contact with the citric acid.

In the case of `O=S(=O)(O)Oc1ccc(C(c2ccc(OS(=O)(=O)O)cc2)c2ccccn2)cc1` [sodium picosulfate], the “Compatibility / stability with citric acid” value is reported as “not compatible or stable with citric acid physically and chemically”.
